Here are results for 6 molecules from BindingDB's records for patent US12281118 (Shanghai Ringene Biopharma, 2025).

This test deals with T1, Tyrosine-protein phosphatase non-receptor type 11 (Homo sapiens, UniProt Q06124).
T1 sequence (Q06124 whole entry): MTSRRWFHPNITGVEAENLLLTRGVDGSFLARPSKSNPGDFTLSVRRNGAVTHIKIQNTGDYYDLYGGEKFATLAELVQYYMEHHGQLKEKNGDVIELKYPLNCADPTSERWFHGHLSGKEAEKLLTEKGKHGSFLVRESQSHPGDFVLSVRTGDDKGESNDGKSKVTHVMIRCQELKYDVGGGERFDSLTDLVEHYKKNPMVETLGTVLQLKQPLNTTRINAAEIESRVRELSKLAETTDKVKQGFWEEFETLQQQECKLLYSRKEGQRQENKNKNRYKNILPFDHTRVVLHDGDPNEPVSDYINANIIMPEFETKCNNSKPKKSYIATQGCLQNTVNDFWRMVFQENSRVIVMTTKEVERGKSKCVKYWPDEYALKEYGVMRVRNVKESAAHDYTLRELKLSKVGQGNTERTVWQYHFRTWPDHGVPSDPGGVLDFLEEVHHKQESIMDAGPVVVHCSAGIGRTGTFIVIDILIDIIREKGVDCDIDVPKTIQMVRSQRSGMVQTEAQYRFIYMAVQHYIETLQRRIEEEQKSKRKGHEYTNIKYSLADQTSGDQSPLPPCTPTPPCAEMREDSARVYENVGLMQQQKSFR
The test can be described thus: Test of Inhibitory Activity Assay. Here is the method:
(1) Preparing 1×Reaction Buffer according to the BPS Biosciences' Instructions for Use of the SHP2 enzyme. (2) Preparing a compound concentration gradient: Test the test compound at 10 μM under 3× dilution for 10 concentrations, diluting to a 100% dimethyl sulfoxide solution at a 100× final concentration in a 384-well plate, and diluting the compound with Precision 4× for 10 concentrations. […] (3) Preparing the activation peptide solution at a 5× final concentration with the 1×Reaction Buffer, adding 5 μL of the solution to a reaction plate, respectively, and centrifuging at 1000 rpm for 1 min. (4) Preparing an enzyme solution at a 2.5× final concentration with the 1×Reaction Buffer, adding 10 μL of the solution to the reaction plate, respectively, centrifuging at 1000 rpm for 1 min, and incubating at room temperature for 60 min. […] (6) Adding 30 μL of stop test solution to stop the reaction, centrifuging at 1000 rpm for […], and mixing well by shaking. (7) Reading the conversion rate with a Caliper EZ Reader. (7) Data analysis:%Inhibition=Conversion%_max-Conversion%_sampleConversion%_max-Conversion%_min×100Wherein: Conversion %/_sample is the reading of a conversion rate of a sample; Conversion %_min: mean of negative control wells, which represents the reading of a conversion rate in absence of enzyme activity wells; Conversion %_max: mean of a ratio of positive control wells, which represents the reading of a conversion rate in absence of compound inhibition wells.

Usually IC50 stands for the concentration that inhibits the measured activity by half. The low end stands for greater potency, the high end for weaker potency. In turn, `Cc1nc(N2CCC(C)(N)CC2)n2ncnc2c1-c1cccc(Cl)c1Cl` [US12281118, Example 21] yielded an IC50 greater than 1000 nM.
As for `Cc1nc(N2CCC(C)(N)CC2)n2ccnc2c1Sc1cccc(Cl)c1Cl` [US12281118, Example 25], the figure is 65 nM.
As for `Cc1nc(N2CCC3(CC2)Cc2ccccc2[C@H]3N)n2ccnc2c1Sc1cccnc1C(F)(F)F` [US12281118, Example 2], the figure is 6.3 nM.
As for `Cc1nc(N2CCC(C)(N)CC2)n2cnnc2c1-c1cccc(Cl)c1Cl` [US12281118, Example 22], the figure is greater than 1000 nM; as for `CC1(N)CCN(c2nc(CF)c(-c3cccc(Cl)c3Cl)c3nccn23)CC1` [US12281118, Example 28], 53 nM; as for `Cc1cc(N2CCC(C)(N)CC2)n2cnnc2c1-c1cccc(Cl)c1Cl` [US12281118, Example 23], greater than 1000 nM.
